Columns and labels:
[1] = oral administration; cited from earlier work
[2] = tested on: participants with chronic migraine; assay: Phase 3 randomized, double-blind, placebo-controlled study of atogepant for prevention of chronic migraine: eDiary efficacy (migraine, headache and acute medication use days, responder rates); type: in vivo, human; conditions: for MMDs, LS mean difference vs. placebo / participants with ≥50% reduction in 3-month average of MMDs / ≥50% reduction in 3-month average of MMDs, OR vs placebo: Europe subpopulation; for LSM change from baseline in mean monthly acute medication use days / mean monthly acute medication use days, LSM difference vs placebo: acute medication over-users; for participants with ≥50% reduction in mean MMDs across the 12-week treatment period: acute medication overuse participants; for LSM change from baseline in mean MMDs across 12 weeks: participants with acute medication overuse at baseline; for mean change from baseline in MMDs: weeks 1-4 of treatment
Description: A phase 3, multicenter, randomized, double-blind, placebo-controlled, parallel-group study was carried out to evaluate the efficacy, safety, and tolerability of atogepant for the prevention of chronic migraine. A total of 778 participants from 133 sites in North America, Europe, and East Asia were randomized to one of three treatment arms (placebo, Atogepant 30 mg BID, and Atogepant 60 mg QD) in a 1:1:1 ratio.
This study comprised a 4-week screening and baseline period, a 12-week double blind treatment period, and a follow-up period of 4 additional weeks. The total study duration was 20 weeks. Participant disposition information and other relevant participant screening information may also be found in FIG. 19.
The primary end point was the change from baseline in the mean number of migraine days per month across the 12 week treatment period.
Secondary endpoints included change from baseline in mean monthly headache days across the 12 week treatment period; change from baseline in mean monthly acute medication use days across the 12-week treatment period; at least a 50% reduction in mean monthly migraine days across the 12-week treatment period; change from baseline in MSQ v2.1 Role Function-Restrictive domain score at week 12; change from baseline in mean AIM-D monthly functioning and activity impairment score across the 12-week treatment period; and change from baseline in HIT-6 total score at week 12.
Inclusion criteria included at least a 1-year history of chronic migraine consistent with diagnosis according to the International Classification of Headache Disorders, 3rd Edition (ICHD-3) and age of the participant at the time of migraine onset <50 years. Inclusion criteria further included confirmation of headache / migraine headache day frequency as follows: history of, on average, ≥15 headache days per month in the 3 months prior to Visit 1 in the opinion of the investigator AND >=15 headache days during the 4-week screening/baseline period per the electronic diary (eDiary) AND >=8 days during the 4-week screening/baseline period that qualify as being a migraine day per the eDiary. Participants were also required to be using a medically acceptable and effective method of birth control during the course of the entire study.
Exclusion criteria included a history of migraine, accompanied by diplopia or decreased level of consciousness, or retinal migraine; a current diagnosis of new persistent daily headache, trigeminal autonomic cephalgia (e.g., cluster headache), or painful cranial neuropathy; history of an inadequate response to >4 medications (2 of which have different mechanisms of action) prescribed for the prevention of migraine; and woman who is pregnant, planning to become pregnant during the course of the study, or currently lactating.
• All Screened Participants includes those screened participants who signed informed consent form. • The Intent-to-Treat Population includes all randomized participants. […] Treatment groups assigned as randomized.
A Subset of patients (11%) was allowed to use one concomitant migraine preventive medication (e.g., amitriptyline, propranolol, topiramate). Patients were allowed to use acute headache treatments (i.e., triptans, ergotamine derivatives, NSAIDs, acetaminophen, and opioids) as needed. Patients with acute medication overuse and medication overuse headache were also enrolled. The use of a concomitant medication that acts on the CGRP pathway was not permitted for either acute or preventive treatment of migraine. The study excluded patients with myocardial infarction, stroke, or transient ischemic attacks within six months prior to screening.
Outcomes for this analysis included change from baseline in mean MMDs during 4-week intervals, change in weekly migraine days during weeks 1-4, and the proportion of participants with a migraine on each day during the first 7 days of treatment. […] Baseline MMDs ranged from 18.6 to 19.2 across treatment groups. […]

[3] = 30 mg BID, Off-Treatment Hypothetical Estimand population
[4] = 30 mg BID, mITT, listed as atogepant
[5] = 60 mg QD, Off-Treatment Hypothetical Estimand population
[6] = 60 mg QD, mITT, listed as atogepant
[7] = range over 30 mg twice daily and 60 mg once daily

## C[C@@H]1[C@H](c2c(F)ccc(F)c2F)C[C@H](NC(=O)c2cnc3c(c2)C[C@@]2(C3)C(=O)Nc3ncccc32)C(=O)N1CC(F)(F)F [Atogepant, (S)—N—((3S,5S,6R)-6-methyl-2-oxo-1-(2,2,2-trifluoroethyl)-5-(2,3,6-trifluorophenyl)piperidin-3-yl)-2′-oxo-1′,2′,5,7-tetrahydrospiro[cyclopenta[b]pyridine-6,3′-pyrrolo[2,3-b]pyridine]-3-carboxamide]
[1]
  half-life: approximately 11 hours
  time to maximum plasma concentrations: ≤ 2 h
[2]; 30 mg BID
  MMDs, LS mean difference vs. placebo: −3.02
  participants with ≥50% reduction in 3-month average of MMDs: 48.4%
  ≥50% reduction in 3-month average of MMDs, OR vs placebo: 1.87
  LSM change from baseline in mean monthly acute medication use days: −8.4
  mean monthly acute medication use days, LSM difference vs placebo: −2.8
  participants with ≥50% reduction in mean MMDs across the 12-week treatment period: 44.7%
  LSM change from baseline in mean MMDs across 12 weeks: −8.3
  mean change from baseline in MMDs: -6.6 days
[2]; 30 mg BID, Europe subpopulation of OTHE population (n=91)
  LS mean change in MMDs: −8.44
[2]; 30 mg BID, OTHE population
  decrease of monthly migraine days across the 12 weeks: 7.33 days
[2]; [3]
  >=50% reduction in 3-month average of monthly migraine days, Odds ratio Atogepant vs. Placebo: 2.03
  Change from baseline in mean monthly acute medication use days across the 12-week treatment period, LS Mean: -6.61 days
  Change from baseline in mean monthly acute medication use days across the 12-week treatment period, LSMD Atogepant vs. Placebo: -2.52 days
  Change from baseline in mean monthly headache days across the 12-week treatment period, LS Mean: -7.32 days
  Change from baseline in mean monthly headache days across the 12-week treatment period, LSMD Atogepant vs. Placebo: -2.14 days
  Change from baseline in mean monthly migraine days across the 12-week treatment period, LS Mean: -7.33 days
  Change from baseline in mean monthly migraine days across the 12-week treatment period, LSMD Atogepant vs. Placebo: -2.24 days
[2]; 30 mg BID, Off-Treatment Hypothetical Estimand population (N = 254)
  >=50% reduction in 3-month average of monthly migraine days, Responders: 107 (42.1) n (%)
[2]; 30 mg BID, mITT
  >=50% reduction in 3-month average of monthly migraine days, Odds ratio Atogepant vs. Placebo: 2.13
  Change from baseline in mean monthly acute medication use days across the 12-week treatment period, LS Mean: -6.73 days
  Change from baseline in mean monthly acute medication use days across the 12-week treatment period, LSMD Atogepant vs. Placebo: -2.63 days
  Change from baseline in mean monthly headache days across the 12-week treatment period, LS Mean: -7.44 days
  Change from baseline in mean monthly headache days across the 12-week treatment period, LSMD Atogepant vs. Placebo: -2.32 days
  Change from baseline in mean monthly migraine days across the 12-week treatment period, LS Mean: -7.46 days
  Change from baseline in mean monthly migraine days across the 12-week treatment period, LSMD Atogepant vs. Placebo: -2.41 days
  decrease of monthly migraine days across the 12 weeks: 7.46 days
  participants with ≥30% reduction in mean MMDs across 12 weeks: 62.1%
  participants with ≥50% reduction in mean MMDs across 12 weeks: 42.7%
  participants with ≥75% reduction in mean MMDs across 12 weeks: 21.3%
[2]; [4]
  Change from baseline in mean monthly migraine days across the 12-week treatment period, LS Mean: -7.5 days
  Change from baseline in mean monthly migraine days across the 12-week treatment period, LSMD Atogepant vs. Placebo: -2.4 days
[2]; 30 mg twice daily
  participants with <30% reduction in mean MMDs in month 1 who experienced ≥30% reduction in either month 2 or 3: 50/96
  participants with <30% reduction in mean MMDs in month 1 who experienced ≥30% reduction in month 2: 36/99
  participants with <50% reduction in mean MMDs in month 1 who experienced ≥50% reduction in either month 2 or 3: 52/132
  participants with <50% reduction in mean MMDs in month 1 who experienced ≥50% reduction in month 2: 32/136
  participants without ≥30% reduction in mean MMDs in months 1 or 2 who experienced a ≥30% response by the end of the trial: 23.3%
  participants without ≥50% reduction in mean MMDs in months 1 or 2 who experienced a ≥50% response by the end of the trial: 20.0%
[2]; 30 mg twice daily, mITT
  sustained response among participants with ≥75% response in month 1: 46.9%
  sustained response of ≥30% in months 2 and 3 among participants with ≥30% response in month 1: 81.8%
  sustained response of ≥50% in months 2 and 3 among participants with ≥50% response in month 1: 71.6%
[2]; 60 mg QD
  MMDs, LS mean difference vs. placebo: −2.59
  participants with ≥50% reduction in 3-month average of MMDs: 46.7%
  ≥50% reduction in 3-month average of MMDs, OR vs placebo: 1.84
  LSM change from baseline in mean monthly acute medication use days: −8.1
  mean monthly acute medication use days, LSM difference vs placebo: −2.6
  participants with ≥50% reduction in mean MMDs across the 12-week treatment period: 41.8%
  LSM change from baseline in mean MMDs across 12 weeks: −7.5
  mean change from baseline in MMDs: -6.2 days
[2]; 60 mg QD, Europe subpopulation of OTHE population (n=90)
  LS mean change in MMDs: −8.00
[2]; 60 mg QD, OTHE population
  decrease of monthly migraine days across the 12 weeks: 6.75 days
[2]; [5]
  >=50% reduction in 3-month average of monthly migraine days, Odds ratio Atogepant vs. Placebo: 1.90
  Change from baseline in mean monthly acute medication use days across the 12-week treatment period, LS Mean: -6.19 days
  Change from baseline in mean monthly acute medication use days across the 12-week treatment period, LSMD Atogepant vs. Placebo: -2.09 days
  Change from baseline in mean monthly headache days across the 12-week treatment period, LS Mean: -6.90 days
  Change from baseline in mean monthly headache days across the 12-week treatment period, LSMD Atogepant vs. Placebo: -1.72 days
  Change from baseline in mean monthly migraine days across the 12-week treatment period, LS Mean: -6.75 days
  Change from baseline in mean monthly migraine days across the 12-week treatment period, LSMD Atogepant vs. Placebo: -1.66 days
[2]; 60 mg QD, Off-Treatment Hypothetical Estimand population (N = 257)
  >=50% reduction in 3-month average of monthly migraine days, Responders: 103 (40.1) n (%)
[2]; 60 mg QD, mITT
  >=50% reduction in 3-month average of monthly migraine days, Odds ratio Atogepant vs. Placebo: 2.04
  Change from baseline in mean monthly acute medication use days across the 12-week treatment period, LS Mean: -6.23 days
  Change from baseline in mean monthly acute medication use days across the 12-week treatment period, LSMD Atogepant vs. Placebo: -2.13 days
  Change from baseline in mean monthly headache days across the 12-week treatment period, LS Mean: -7.00 days
  Change from baseline in mean monthly headache days across the 12-week treatment period, LSMD Atogepant vs. Placebo: -1.87 days
  Change from baseline in mean monthly migraine days across the 12-week treatment period, LS Mean: -6.88 days
  Change from baseline in mean monthly migraine days across the 12-week treatment period, LSMD Atogepant vs. Placebo: -1.82 days
  decrease of monthly migraine days across the 12 weeks: 6.88 days
  participants with ≥30% reduction in mean MMDs across 12 weeks: 59.0%
  participants with ≥50% reduction in mean MMDs across 12 weeks: 41.0%
  participants with ≥75% reduction in mean MMDs across 12 weeks: 18.8%
[2]; [6]
  Change from baseline in mean monthly migraine days across the 12-week treatment period, LS Mean: -6.9 days
  Change from baseline in mean monthly migraine days across the 12-week treatment period, LSMD Atogepant vs. Placebo: -1.8 days
[2]; 60 mg once daily
  participants with <30% reduction in mean MMDs in month 1 who experienced ≥30% reduction in either month 2 or 3: 45/108
  participants with <30% reduction in mean MMDs in month 1 who experienced ≥30% reduction in month 2: 31/113
  participants with <50% reduction in mean MMDs in month 1 who experienced ≥50% reduction in either month 2 or 3: 38/139
  participants with <50% reduction in mean MMDs in month 1 who experienced ≥50% reduction in month 2: 28/146
  participants without ≥30% reduction in mean MMDs in months 1 or 2 who experienced a ≥30% response by the end of the trial: 17.1%
  participants without ≥50% reduction in mean MMDs in months 1 or 2 who experienced a ≥50% response by the end of the trial: 8.2%
[2]; 60 mg once daily, mITT
  sustained response among participants with ≥75% response in month 1: 52.5%
  sustained response of ≥30% in months 2 and 3 among participants with ≥30% response in month 1: 81.6%
  sustained response of ≥50% in months 2 and 3 among participants with ≥50% response in month 1: 74.2%
[2]; first full day after treatment initiation, atogepant-treated participants, P≤0.03
  likelihood of having a migraine vs placebo: significantly less likely
[2]; [7]
  participants with <30% reduction in mean MMDs in month 1 who experienced ≥30% reduction in either month 2 or 3: 41.7%-52.1%
  participants with <30% reduction in mean MMDs in month 1 who experienced ≥30% reduction in month 2: 27.4%-36.4%
  participants with <50% reduction in mean MMDs in month 1 who experienced ≥50% reduction in either month 2 or 3: 27.3%-39.4%
  participants with <50% reduction in mean MMDs in month 1 who experienced ≥50% reduction in month 2: 19.2%-23.5%

— patent US20230321055A1, “PREVENTIVE TREATMENT OF MIGRAINE” (priority 2022, published 2023)
